This test has as its target hNav1.7 (Homo sapiens, UniProt Q15858). Nature of the test: cell-based. Format: cell-based. The following applies: Table 12; PatchXpress, tonic block; read-out: PX hNav1.7 Tonic IC50.

Usually IC50 stands for the concentration that gives 50% inhibition.

SMILES strings stand for the structures.

Chain of hNav1.7 (Q15858 whole entry): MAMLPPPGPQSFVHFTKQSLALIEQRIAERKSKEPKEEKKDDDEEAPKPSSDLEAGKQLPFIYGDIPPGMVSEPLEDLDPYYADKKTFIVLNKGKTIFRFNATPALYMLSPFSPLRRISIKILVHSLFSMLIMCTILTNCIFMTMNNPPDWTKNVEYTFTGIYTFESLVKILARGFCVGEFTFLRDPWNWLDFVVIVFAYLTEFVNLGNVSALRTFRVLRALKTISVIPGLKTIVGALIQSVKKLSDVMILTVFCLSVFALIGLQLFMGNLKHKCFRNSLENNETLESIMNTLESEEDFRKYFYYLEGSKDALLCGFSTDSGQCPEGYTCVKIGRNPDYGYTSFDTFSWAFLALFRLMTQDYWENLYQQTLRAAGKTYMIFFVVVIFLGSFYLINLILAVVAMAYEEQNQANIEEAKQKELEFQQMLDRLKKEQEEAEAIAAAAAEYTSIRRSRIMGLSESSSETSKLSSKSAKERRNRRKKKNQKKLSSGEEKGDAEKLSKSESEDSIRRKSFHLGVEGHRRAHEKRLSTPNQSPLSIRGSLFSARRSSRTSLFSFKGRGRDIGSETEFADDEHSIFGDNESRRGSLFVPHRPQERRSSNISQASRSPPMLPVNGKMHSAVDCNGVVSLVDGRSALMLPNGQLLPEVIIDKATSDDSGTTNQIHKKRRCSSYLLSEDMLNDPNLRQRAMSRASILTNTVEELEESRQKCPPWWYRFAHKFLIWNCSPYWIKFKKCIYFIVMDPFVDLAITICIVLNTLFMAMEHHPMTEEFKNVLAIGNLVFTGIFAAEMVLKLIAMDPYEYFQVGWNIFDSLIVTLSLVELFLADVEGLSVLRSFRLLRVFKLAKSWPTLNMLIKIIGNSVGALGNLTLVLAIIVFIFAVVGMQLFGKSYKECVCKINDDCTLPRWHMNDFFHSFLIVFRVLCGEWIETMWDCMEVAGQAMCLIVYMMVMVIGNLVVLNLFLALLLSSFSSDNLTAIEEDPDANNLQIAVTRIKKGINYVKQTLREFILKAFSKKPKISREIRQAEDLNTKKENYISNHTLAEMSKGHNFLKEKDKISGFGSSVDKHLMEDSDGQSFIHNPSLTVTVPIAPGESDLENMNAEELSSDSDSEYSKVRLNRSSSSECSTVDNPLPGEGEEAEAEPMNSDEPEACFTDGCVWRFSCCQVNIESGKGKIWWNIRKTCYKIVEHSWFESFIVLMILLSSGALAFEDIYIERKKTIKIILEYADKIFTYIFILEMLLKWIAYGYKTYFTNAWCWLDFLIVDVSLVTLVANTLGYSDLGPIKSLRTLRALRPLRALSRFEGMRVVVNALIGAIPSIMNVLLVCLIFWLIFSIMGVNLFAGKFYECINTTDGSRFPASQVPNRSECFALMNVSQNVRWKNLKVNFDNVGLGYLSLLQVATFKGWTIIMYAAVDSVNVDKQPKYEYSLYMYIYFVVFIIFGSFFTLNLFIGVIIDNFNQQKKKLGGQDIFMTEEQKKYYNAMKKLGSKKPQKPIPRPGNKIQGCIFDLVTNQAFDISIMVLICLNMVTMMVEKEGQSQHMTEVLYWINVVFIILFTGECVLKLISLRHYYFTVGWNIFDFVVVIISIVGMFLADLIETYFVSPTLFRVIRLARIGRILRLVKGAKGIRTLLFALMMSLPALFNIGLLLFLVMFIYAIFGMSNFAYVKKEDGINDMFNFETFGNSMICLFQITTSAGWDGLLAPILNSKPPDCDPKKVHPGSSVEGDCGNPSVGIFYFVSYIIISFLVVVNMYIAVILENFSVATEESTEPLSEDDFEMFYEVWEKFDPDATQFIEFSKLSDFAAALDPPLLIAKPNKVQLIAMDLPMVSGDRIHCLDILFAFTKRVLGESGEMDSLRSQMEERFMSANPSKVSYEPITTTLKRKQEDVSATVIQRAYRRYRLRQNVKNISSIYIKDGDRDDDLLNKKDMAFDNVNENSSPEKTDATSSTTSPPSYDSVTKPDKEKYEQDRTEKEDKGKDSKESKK

Turning to `C#CC[C@H](N)C(=O)N[C@@H](Cc1ccc(O)cc1)C(=O)N[C@H]1CSSC[C@@H]2NC(=O)[C@@H]3CSSC[C@@H](C(=O)N[C@@H](CCCNC(=N)N)C(=O)N[C@@H](CCCCN)C(=O)N[C@@H](CCC(=O)O)C(=O)N[C@H](C(N)=O)[C@@H](C)CC)NC(=O)[C@H](Cc4ccccc4)NC(=O)[C@H](CC(C)C)NC(=O)[C@H](CCCCN)NC(=O)[C@H](CSSC[C@H](NC(=O)[C@H]([C@@H](C)O)NC(=O)[C@H](Cc4c[nH]c5ccccc45)NC(=O)[C@H](CCCC)NC(=O)[C@H](Cc4c[nH]c5ccccc45)NC(=O)[C@H](CCCCN)NC(=O)[C@H](CCC(N)=O)NC1=O)C(=O)N[C@@H](CC(=O)O)C(=O)N[C@@H](CO)C(=O)N[C@@H](CCCCN)C(=O)N[C@@H](CCCNC(=N)N)C(=O)N[C@@H](C)C(=O)N3)NC(=O)[C@H](CCCNC(=N)N)NC(=O)[C@H](CC(C)C)NC(=O)CNC(=O)[C@H](CCC(=O)O)NC2=O` [compound 853], the half-maximal inhibitory concentration (IC50) is 15.3 nM.
For `C#CC[C@H](N)C(=O)N[C@@H](Cc1ccc(O)cc1)C(=O)N[C@H]1CSSC[C@@H]2NC(=O)[C@@H]3CSSC[C@@H](C(=O)N[C@@H](CCCNC(=N)N)C(=O)N[C@@H](CCCCN)C(=O)N[C@@H](CCC(=O)O)C(=O)N[C@H](C(N)=O)[C@@H](C)CC)NC(=O)[C@H](Cc4c[nH]c5ccccc45)NC(=O)[C@H](CCC)NC(=O)[C@H](CCCCN)NC(=O)[C@H](CSSC[C@H](NC(=O)[C@H]([C@@H](C)O)NC(=O)[C@H](Cc4c[nH]c5ccccc45)NC(=O)[C@H](CCCC)NC(=O)[C@H](Cc4c[nH]c5ccccc45)NC(=O)[C@H](CCCCN)NC(=O)[C@H](CCC(N)=O)NC1=O)C(=O)N[C@@H](CC(=O)O)C(=O)N[C@@H](CO)C(=O)N[C@@H](CCCCN)C(=O)N[C@@H](CCCNC(=N)N)C(=O)N[C@@H](C)C(=O)N3)NC(=O)[C@H](CCCNC(=N)N)NC(=O)[C@H](CC(C)C)NC(=O)CNC(=O)[C@H](CCC(=O)O)NC2=O` [compound 857], the 50% inhibitory concentration (IC50) amounted to 3.03 nM.
In the case of `C#CC[C@@H]1NC(=O)[C@@H]2CSSC[C@H](NC(=O)[C@H](Cc3ccc(O)cc3)NC(=O)[C@@H](N)CC#N)C(=O)N[C@@H](CCC(N)=O)C(=O)N[C@@H](CCCCN)C(=O)N[C@@H](Cc3c[nH]c4ccccc34)C(=O)N[C@@H](CCCC)C(=O)N[C@@H](Cc3c[nH]c4ccccc34)C(=O)N[C@@H]([C@@H](C)O)C(=O)N[C@H]3CSSC[C@H](NC(=O)[C@H](CCCNC(=N)N)NC(=O)[C@H](CC(C)C)NC(=O)CNC1=O)C(=O)N[C@@H](CCCCN)C(=O)N[C@@H](CC(C)C)C(=O)N[C@@H](Cc1c[nH]c4cc(Br)ccc14)C(=O)N[C@H](C(=O)N[C@@H](CCCNC(=N)N)C(=O)N[C@@H](CCCCN)C(=O)N[C@@H](CCC(=O)O)C(=O)N[C@H](C(N)=O)[C@@H](C)CC)CSSC[C@H](NC(=O)[C@H](C)NC(=O)[C@H](CCCNC(=N)N)NC(=O)[C@H](CCCCN)NC(=O)[C@H](CO)NC(=O)[C@H](CC(=O)O)NC3=O)C(=O)N2` [compound 873], the concentration for half-maximal inhibition (IC50) is 8.47 nM.
As for `C#CC[C@@H]1NC(=O)[C@@H]2CSSC[C@H](NC(=O)[C@H](Cc3ccc(O)cc3)NC(=O)[C@@H](N)CC#N)C(=O)N[C@@H](CCC(N)=O)C(=O)N[C@@H](CCCCN)C(=O)N[C@@H](Cc3c[nH]c4ccccc34)C(=O)N[C@@H](CCCC)C(=O)N[C@@H](Cc3c[nH]c4ccccc34)C(=O)N[C@@H]([C@@H](C)O)C(=O)N[C@H]3CSSC[C@H](NC(=O)[C@H](CCCNC(=N)N)NC(=O)[C@H](CC(C)C)NC(=O)CNC1=O)C(=O)N[C@@H](CCCCN)C(=O)N[C@@H](CC(C)C)C(=O)N[C@@H](Cc1c[nH]c4cc(C)ccc14)C(=O)N[C@H](C(=O)N[C@@H](CCCNC(=N)N)C(=O)N[C@@H](CCCCN)C(=O)N[C@@H](CCC(=O)O)C(=O)N[C@H](C(N)=O)[C@@H](C)CC)CSSC[C@H](NC(=O)[C@H](C)NC(=O)[C@H](CCCNC(=N)N)NC(=O)[C@H](CCCCN)NC(=O)[C@H](CO)NC(=O)[C@H](CC(=O)O)NC3=O)C(=O)N2` [compound 874], the half-maximal inhibitory concentration (IC50) came to 14 nM.

(Values after patent US10344060B2 (priority 2013, dated 2019).)
